Results: a compilation of properties of binary mixtures (doi:10.1021/acs.iecr.6b02875)

Test: xn = mol fraction of the nth substance listed
Conditions: 101 kPa; for electrical conductivity: 298.15 K

**Q.** With `CCOCC[n+]1ccn(C)c1.O=S(=O)([N-]S(=O)(=O)C(F)(F)F)C(F)(F)F` + O as the molecule, how does the viscosity (293 K, x1 = 0.8421) read?
**A.** The viscosity was 42.4 mPa·s.

**Q.** What about the electrical conductivity (x1 = 0.8421) of the same molecule?
**A.** The electrical conductivity was 0.499 S/m.

**Q.** What about the viscosity (303 K, x1 = 0.8421) of the same molecule?
**A.** The viscosity was 27.8 mPa·s.

**Q.** What about the viscosity (313 K, x1 = 0.8421) of the same molecule?
**A.** Its viscosity is 19.5 mPa·s.

**Q.** What about the viscosity (323 K, x1 = 0.8421) of the same molecule?
**A.** The viscosity was 14.2 mPa·s.

**Q.** What about the viscosity (333 K, x1 = 0.8421) of the same molecule?
**A.** Its viscosity is 10.7 mPa·s.

**Q.** And the viscosity (343 K, x1 = 0.8421)?
**A.** Its viscosity is 8.3 mPa·s.

**Q.** What about the viscosity (353 K, x1 = 0.8421) of the same molecule?
**A.** The viscosity was 6.5 mPa·s.

**Q.** With `COC[n+]1ccn(C)c1.O=S(=O)([N-]S(=O)(=O)C(F)(F)F)C(F)(F)F` + O as the molecule, how does the viscosity (293 K, x1 = 0.8281) read?
**A.** The viscosity was 48.3 mPa·s.

**Q.** What about the viscosity (298.1 K, x1 = 0.8281) of the same molecule?
**A.** The viscosity was 38.4 mPa·s.

**Q.** What about the electrical conductivity (x1 = 0.8281) of the same molecule?
**A.** Its electrical conductivity is 0.594 S/m.

**Q.** What about the viscosity (303 K, x1 = 0.8281) of the same molecule?
**A.** The viscosity was 31.1 mPa·s.

**Q.** And the viscosity (313 K, x1 = 0.8281)?
**A.** The viscosity was 21.4 mPa·s.

**Q.** And the viscosity (323 K, x1 = 0.8281)?
**A.** Its viscosity is 15.4 mPa·s.

**Q.** And the viscosity (333 K, x1 = 0.8281)?
**A.** Its viscosity is 11.4 mPa·s.

**Q.** What about the viscosity (343 K, x1 = 0.8281) of the same molecule?
**A.** Its viscosity is 8.8 mPa·s.

**Q.** And the viscosity (353 K, x1 = 0.8281)?
**A.** The viscosity was 7 mPa·s.

**Q.** Which viscosity (293 K, x1 = 0.838) does the source give for `COCC[n+]1ccn(C)c1.O=S(=O)([N-]S(=O)(=O)C(F)(F)F)C(F)(F)F` + O here?
**A.** The viscosity was 41.5 mPa·s.

**Q.** What about the viscosity (298.1 K, x1 = 0.838) of the same molecule?
**A.** The viscosity was 33.3 mPa·s.

**Q.** And the viscosity (303 K, x1 = 0.838)?
**A.** Its viscosity is 27.4 mPa·s.

**Q.** What about the viscosity (313 K, x1 = 0.838) of the same molecule?
**A.** Its viscosity is 19.4 mPa·s.

**Q.** And the viscosity (323 K, x1 = 0.838)?
**A.** Its viscosity is 14.2 mPa·s.

**Q.** And the viscosity (333 K, x1 = 0.838)?
**A.** The viscosity was 10.7 mPa·s.

**Q.** What about the viscosity (343 K, x1 = 0.838) of the same molecule?
**A.** Its viscosity is 8.4 mPa·s.

**Q.** And the viscosity (353 K, x1 = 0.838)?
**A.** The viscosity was 6.7 mPa·s.

**Q.** Which results are given for `COCCCn1cc[n+](C)c1.O=S(=O)([N-]S(=O)(=O)C(F)(F)F)C(F)(F)F` + O?
**A.** viscosity (293 K, x1 = 0.8318): 49.6 mPa·s; viscosity (298.1 K, x1 = 0.8318): 39.7 mPa·s; electrical conductivity (x1 = 0.8318): 0.44 S/m; viscosity (303 K, x1 = 0.8318): 32.1 mPa·s; viscosity (313 K, x1 = 0.8318): 22.1 mPa·s; viscosity (323 K, x1 = 0.8318): 15.9 mPa·s; viscosity (333 K, x1 = 0.8318): 11.8 mPa·s; viscosity (343 K, x1 = 0.8318): 9.1 mPa·s; viscosity (353 K, x1 = 0.8318): 7.1 mPa·s

**Q.** What does the source list for `CCCOCCn1cc[n+](C)c1.O=S(=O)([N-]S(=O)(=O)C(F)(F)F)C(F)(F)F` + O?
**A.** viscosity (293 K, x1 = 0.8308): 48 mPa·s; electrical conductivity (x1 = 0.8308): 0.404 S/m; viscosity (303 K, x1 = 0.8308): 31.6 mPa·s; viscosity (313 K, x1 = 0.8308): 21.9 mPa·s; viscosity (323 K, x1 = 0.8308): 15.9 mPa·s; viscosity (333 K, x1 = 0.8308): 12 mPa·s; viscosity (343 K, x1 = 0.8308): 9.2 mPa·s; viscosity (353 K, x1 = 0.8308): 7.3 mPa·s

**Q.** With `COC[n+]1ccccc1.O=S(=O)([N-]S(=O)(=O)C(F)(F)F)C(F)(F)F` + O as the molecule, how does the viscosity (283 K, x1 = 0.8484) read?
**A.** Its viscosity is 75.6 mPa·s.

**Q.** What about the viscosity (293 K, x1 = 0.8484) of the same molecule?
**A.** The viscosity was 46.3 mPa·s.

**Q.** What about the viscosity (313 K, x1 = 0.8484) of the same molecule?
**A.** Its viscosity is 21.7 mPa·s.

**Q.** And the viscosity (323 K, x1 = 0.8484)?
**A.** Its viscosity is 15.8 mPa·s.

**Q.** What about the viscosity (343 K, x1 = 0.8484) of the same molecule?
**A.** Its viscosity is 9.4 mPa·s.

**Q.** What about the viscosity (353 K, x1 = 0.8484) of the same molecule?
**A.** Its viscosity is 7.5 mPa·s.

**Q.** What does the source list for `CCOCn1cc[n+](C)c1.O=S(=O)([N-]S(=O)(=O)C(F)(F)F)C(F)(F)F` + O?
**A.** viscosity (283 K, x1 = 0.8413): 81.6 mPa·s; viscosity (293 K, x1 = 0.8413): 48.9 mPa·s; viscosity (298.1 K, x1 = 0.8413): 38.8 mPa·s; electrical conductivity (x1 = 0.8413): 0.504 S/m; viscosity (303 K, x1 = 0.8413): 31.4 mPa·s; viscosity (313 K, x1 = 0.8413): 21.6 mPa·s; viscosity (323 K, x1 = 0.8413): 15.7 mPa·s; viscosity (343 K, x1 = 0.8413): 9.1 mPa·s; viscosity (353 K, x1 = 0.8413): 7.2 mPa·s
